Experimental data taken from ChEMBL document CHEMBL6178004, “Novel Azaindole Compounds as Phosphodiesterase 4B Inhibitors for Treating Immune-Inflammatory Diseases or Disorders” (ACS Med Chem Lett, 2025).

Assays:
[1] = target: 3',5'-cyclic-AMP phosphodiesterase 4D (Homo sapiens, UniProt Q08499); test: Inhibition of human recombinant PDE4D3 using [3H]cAMP as substrate incubated for 30 mins by scintillation proximity assay; type: single protein
[2] = target: 3',5'-cyclic-AMP phosphodiesterase 4B (Homo sapiens, UniProt Q07343); test: Inhibition of human recombinant PDE4B1 using [3H]cAMP as substrate incubated for 30 mins by scintillation proximity assay
3',5'-cyclic-AMP phosphodiesterase 4B, sequence (Q07343 whole entry): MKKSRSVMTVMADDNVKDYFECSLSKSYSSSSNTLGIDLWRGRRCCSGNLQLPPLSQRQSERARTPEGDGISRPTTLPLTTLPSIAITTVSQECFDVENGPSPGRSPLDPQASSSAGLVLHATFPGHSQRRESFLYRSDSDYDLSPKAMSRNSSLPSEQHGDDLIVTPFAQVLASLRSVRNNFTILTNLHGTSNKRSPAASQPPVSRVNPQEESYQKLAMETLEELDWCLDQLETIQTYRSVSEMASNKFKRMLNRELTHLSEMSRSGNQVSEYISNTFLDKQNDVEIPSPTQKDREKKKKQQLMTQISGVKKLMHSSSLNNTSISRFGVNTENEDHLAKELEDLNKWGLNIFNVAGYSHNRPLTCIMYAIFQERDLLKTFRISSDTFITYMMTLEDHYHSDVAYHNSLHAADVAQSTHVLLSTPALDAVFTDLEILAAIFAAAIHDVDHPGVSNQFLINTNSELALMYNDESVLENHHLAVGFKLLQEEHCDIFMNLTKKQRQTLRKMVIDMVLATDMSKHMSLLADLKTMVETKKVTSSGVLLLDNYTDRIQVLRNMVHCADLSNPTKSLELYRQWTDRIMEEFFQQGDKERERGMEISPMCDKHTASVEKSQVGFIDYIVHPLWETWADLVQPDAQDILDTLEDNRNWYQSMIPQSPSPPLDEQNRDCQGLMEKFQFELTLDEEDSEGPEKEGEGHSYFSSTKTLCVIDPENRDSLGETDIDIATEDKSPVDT

3',5'-cyclic-AMP phosphodiesterase 4D, sequence (Q08499 whole entry): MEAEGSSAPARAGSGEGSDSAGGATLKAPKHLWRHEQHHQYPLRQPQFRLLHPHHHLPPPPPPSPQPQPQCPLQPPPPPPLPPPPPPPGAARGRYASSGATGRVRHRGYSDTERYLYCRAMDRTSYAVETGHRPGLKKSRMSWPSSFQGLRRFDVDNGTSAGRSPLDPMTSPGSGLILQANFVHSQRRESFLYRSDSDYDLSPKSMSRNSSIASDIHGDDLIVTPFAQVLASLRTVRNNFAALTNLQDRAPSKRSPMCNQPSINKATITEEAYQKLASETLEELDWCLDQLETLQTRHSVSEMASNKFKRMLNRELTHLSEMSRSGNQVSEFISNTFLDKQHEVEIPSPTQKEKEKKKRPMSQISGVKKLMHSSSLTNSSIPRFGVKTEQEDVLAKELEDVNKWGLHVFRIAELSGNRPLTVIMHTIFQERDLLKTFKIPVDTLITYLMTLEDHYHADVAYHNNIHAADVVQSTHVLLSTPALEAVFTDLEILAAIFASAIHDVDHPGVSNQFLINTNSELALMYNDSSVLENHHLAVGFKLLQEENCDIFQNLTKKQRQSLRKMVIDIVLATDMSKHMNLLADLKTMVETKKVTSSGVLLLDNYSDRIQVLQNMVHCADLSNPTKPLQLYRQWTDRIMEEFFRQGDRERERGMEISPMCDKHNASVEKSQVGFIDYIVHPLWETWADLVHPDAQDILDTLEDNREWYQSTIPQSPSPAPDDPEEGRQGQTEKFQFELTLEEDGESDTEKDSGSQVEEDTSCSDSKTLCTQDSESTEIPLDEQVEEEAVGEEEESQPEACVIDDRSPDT

## COc1ccc(-c2c3n(c4cc(F)cnc24)C[C@H](CO)N(C2CC2)C3=O)cn1
[1]
  IC50: 10 nM
[2]
  IC50: < 10 nM

## O=C1c2c(-c3ccc(Cl)c(F)c3)c3ncccc3n2C[C@H](CO)N1C1CC1
[1]
  IC50: 10 nM
[2]
  IC50: < 10 nM

## O=C1c2c(-c3ccc(F)c(F)c3)c3ncccc3n2C[C@@H](CO)N1C1CC1
[1]
  IC50: 10 nM
[2]
  IC50: < 10 nM

## N#Cc1ccc(-c2c3n(c4cccnc24)C[C@@H](CO)N(C2CC2)C3=O)cc1F
[1]
  IC50: 10 nM
[2]
  IC50: < 10 nM

## O=C1c2c(-c3ccc(Cl)c(F)c3)c3ncccc3n2CCN1CCO
[1]
  IC50: 10 nM
[2]
  IC50: < 10 nM

## C[C@@H]1Cn2c(c(-c3ccc(Cl)c(F)c3)c3ncccc32)C(=O)N1CCO
[1]
  IC50: < 10 nM
[2]
  IC50: < 10 nM
